# Results: article PMC9434606 (RSC Advances, 2022)
# Biological target: T1, pancreatic lipase (Sus scrofa, UniProt P00591)
# T1 sequence (P00591 1-450): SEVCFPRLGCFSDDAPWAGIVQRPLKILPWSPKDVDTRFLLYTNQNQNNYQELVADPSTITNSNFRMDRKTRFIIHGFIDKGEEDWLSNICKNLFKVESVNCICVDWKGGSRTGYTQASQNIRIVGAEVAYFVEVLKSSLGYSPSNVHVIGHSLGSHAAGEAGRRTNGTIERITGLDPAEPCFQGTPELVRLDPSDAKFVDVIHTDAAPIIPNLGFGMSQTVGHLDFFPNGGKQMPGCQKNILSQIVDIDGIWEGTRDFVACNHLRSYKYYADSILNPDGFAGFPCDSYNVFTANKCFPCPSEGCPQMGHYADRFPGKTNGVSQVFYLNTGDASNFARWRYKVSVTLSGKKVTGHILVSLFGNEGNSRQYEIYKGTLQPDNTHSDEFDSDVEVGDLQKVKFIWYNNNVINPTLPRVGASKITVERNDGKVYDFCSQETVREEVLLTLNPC
# Test: pancreatic lipase inhibition assay
# Format: biochemical
row,SMILES,IC50 [µM]
1,"COc1cc(O)c(C(=O)O)c(-c2cc(O)c(O)cc2C)c1 [Compound 4, altenusin]",21.5 ± 0.97
2,"COc1cc(O)c2c(c1)C1(OC2=O)C(C)=CC(=O)C1O (stereo not drawn) [Compound 1, talaroflavone]",73.8 ± 0.82
3,"Cc1cc(O)cc2oc(=O)c3c(O)cc(O)cc3c12 [Compound 5, alternariol]",56.8 ± 0.77
